pKi: −log10 of the molar value.
Target: Amyloid-beta precursor protein (Homo sapiens, UniProt P05067)
Assay: Displacement of […] from Abeta peptide plaques in Alzheimer's disease patient brain

Sequence of Amyloid-beta precursor protein (P05067 whole entry): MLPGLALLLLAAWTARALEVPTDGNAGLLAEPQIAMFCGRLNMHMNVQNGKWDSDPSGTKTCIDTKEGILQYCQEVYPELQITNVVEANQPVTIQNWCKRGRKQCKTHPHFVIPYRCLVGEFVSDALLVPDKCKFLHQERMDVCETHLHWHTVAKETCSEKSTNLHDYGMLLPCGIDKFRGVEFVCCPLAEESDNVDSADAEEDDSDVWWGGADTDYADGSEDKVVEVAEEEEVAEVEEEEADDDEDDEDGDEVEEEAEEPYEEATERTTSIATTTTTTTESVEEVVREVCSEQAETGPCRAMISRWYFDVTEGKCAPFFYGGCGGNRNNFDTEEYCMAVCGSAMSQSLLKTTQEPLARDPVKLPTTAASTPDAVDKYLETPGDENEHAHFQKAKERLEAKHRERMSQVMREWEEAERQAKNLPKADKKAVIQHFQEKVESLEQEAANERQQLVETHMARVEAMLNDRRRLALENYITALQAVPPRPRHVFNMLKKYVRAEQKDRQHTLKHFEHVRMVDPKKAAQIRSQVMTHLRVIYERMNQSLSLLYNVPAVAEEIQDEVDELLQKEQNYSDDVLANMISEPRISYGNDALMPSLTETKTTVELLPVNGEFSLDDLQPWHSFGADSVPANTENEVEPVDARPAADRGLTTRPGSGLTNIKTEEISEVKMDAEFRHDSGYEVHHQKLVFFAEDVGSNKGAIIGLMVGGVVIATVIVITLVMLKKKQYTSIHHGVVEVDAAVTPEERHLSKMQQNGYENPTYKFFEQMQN

Compound | pKi
OCCOc1ncc(C=Cc2ccc(O)cc2)cc1Br | 8.17
CNc1ccc(/C=C/c2cnc(OCCOCCOCCF)c(I)c2)cc1 | 8.05
CN(C)c1ccc(/C=C/c2cnc(OCCO)c(I)c2)cc1 | 8.12
CNc1ccc(/C=C/c2cnc(OCCO)c(I)c2)cc1 | 8.07
Oc1ccc(/C=C/c2cnc(OCCOCCOCCF)c(Br)c2)cc1 | 7.85
CN(C)c1ccc(/C=C/c2cnc(OCCOCCOCCF)c(I)c2)cc1 | 8.12
CNc1ccc(/C=C/c2cnc(OCCO)c(Br)c2)cc1 | 8.30
CN(C)c1ccc(/C=C/c2cnc(OCCOCCOCCF)c(Br)c2)cc1 | 8.17
